From ChEMBL document CHEMBL2146414, “Lignan derivatives from Krameria lappacea roots inhibit acute inflammation in vivo and pro-inflammatory mediators in vitro” (J Nat Prod, 2011)
Active and inactive are the calls of the source. The rule behind the calls is not given here.

Assays:
Mus musculus = experiment: Antiinflammatory activity in CD1 mouse ear dermatitis model assessed as inhibition of Croton oil-induced ear edema administered topically per cm'2 of ear measured after induction of dermatitis relative to untreated control; assay type: functional
[1] = biological target: T1, Inhibitor of nuclear factor kappa-B kinase subunit beta (Homo sapiens) (UniProt O14920); experiment: Inhibition of human IKK2 assessed as reduction in substrate phosphorylation at 10 uM by ELISA
T1 sequence (whole entry): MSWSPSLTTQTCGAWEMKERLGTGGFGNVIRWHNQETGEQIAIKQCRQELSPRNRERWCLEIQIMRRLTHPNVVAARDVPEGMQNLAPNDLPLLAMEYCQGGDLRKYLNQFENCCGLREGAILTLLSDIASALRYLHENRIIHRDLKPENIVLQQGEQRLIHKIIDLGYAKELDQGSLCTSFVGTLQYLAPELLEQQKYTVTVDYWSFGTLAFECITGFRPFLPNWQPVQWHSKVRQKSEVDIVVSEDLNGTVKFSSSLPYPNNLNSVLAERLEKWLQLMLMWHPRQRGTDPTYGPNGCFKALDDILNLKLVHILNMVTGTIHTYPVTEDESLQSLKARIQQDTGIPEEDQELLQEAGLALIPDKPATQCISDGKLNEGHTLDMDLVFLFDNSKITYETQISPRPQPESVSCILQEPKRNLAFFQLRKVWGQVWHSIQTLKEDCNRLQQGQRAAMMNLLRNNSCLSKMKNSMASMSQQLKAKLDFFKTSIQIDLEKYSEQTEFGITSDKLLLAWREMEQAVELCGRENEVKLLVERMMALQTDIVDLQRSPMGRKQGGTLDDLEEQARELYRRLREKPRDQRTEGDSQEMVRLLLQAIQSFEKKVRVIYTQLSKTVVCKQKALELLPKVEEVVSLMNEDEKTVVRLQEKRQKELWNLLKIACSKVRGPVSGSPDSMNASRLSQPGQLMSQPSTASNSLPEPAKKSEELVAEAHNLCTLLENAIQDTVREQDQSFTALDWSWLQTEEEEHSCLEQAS

[2] = biological target: T2, Peroxisome proliferator-activated receptor alpha (Homo sapiens) (UniProt Q07869); experiment: Activation of PPARalpha transfected in HEK293 cells at 10 uM after 18 hrs by firefly luciferase reporter gene-based luminescence assay; assay type: cell-based
T2 sequence (whole entry): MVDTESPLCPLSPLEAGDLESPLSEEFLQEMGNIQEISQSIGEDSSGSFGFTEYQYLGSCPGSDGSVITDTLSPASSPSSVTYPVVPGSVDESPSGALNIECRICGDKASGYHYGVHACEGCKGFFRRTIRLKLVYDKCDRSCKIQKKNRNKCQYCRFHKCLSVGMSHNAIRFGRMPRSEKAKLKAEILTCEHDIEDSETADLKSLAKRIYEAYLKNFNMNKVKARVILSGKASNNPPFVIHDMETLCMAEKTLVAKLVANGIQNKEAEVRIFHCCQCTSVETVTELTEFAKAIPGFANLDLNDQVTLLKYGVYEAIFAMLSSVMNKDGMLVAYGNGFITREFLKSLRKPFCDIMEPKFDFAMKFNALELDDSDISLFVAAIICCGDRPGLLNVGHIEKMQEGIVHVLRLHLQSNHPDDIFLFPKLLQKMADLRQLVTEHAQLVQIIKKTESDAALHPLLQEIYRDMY

[3] = biological target: T3, Peroxisome proliferator-activated receptor gamma (Homo sapiens) (UniProt P37231); experiment: Activation of PPARgamma transfected in HEK293 cells at 10 uM after 18 hrs by firefly luciferase reporter gene-based luminescence assay; assay type: cell-based
T3 sequence (whole entry): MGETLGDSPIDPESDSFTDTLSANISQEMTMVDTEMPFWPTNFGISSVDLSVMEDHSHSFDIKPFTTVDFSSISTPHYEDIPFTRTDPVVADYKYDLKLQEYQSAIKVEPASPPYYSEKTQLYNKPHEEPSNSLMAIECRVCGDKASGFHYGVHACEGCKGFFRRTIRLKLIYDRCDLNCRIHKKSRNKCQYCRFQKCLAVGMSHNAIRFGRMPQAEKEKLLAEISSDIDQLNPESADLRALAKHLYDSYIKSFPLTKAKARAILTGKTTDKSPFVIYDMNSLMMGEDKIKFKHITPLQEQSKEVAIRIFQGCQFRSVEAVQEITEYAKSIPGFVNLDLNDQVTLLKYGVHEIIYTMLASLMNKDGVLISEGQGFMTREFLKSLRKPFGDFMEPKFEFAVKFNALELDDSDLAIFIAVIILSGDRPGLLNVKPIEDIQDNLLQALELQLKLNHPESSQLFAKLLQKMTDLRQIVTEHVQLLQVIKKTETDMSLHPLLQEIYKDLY

[4] = biological target: T4, Glucocorticoid receptor (Homo sapiens) (UniProt P04150); experiment: Activation of GR transfected in HEK293 cells at 10 uM after 18 hrs by firefly luciferase reporter gene-based luminescence assay; assay type: cell-based
T4 sequence (whole entry): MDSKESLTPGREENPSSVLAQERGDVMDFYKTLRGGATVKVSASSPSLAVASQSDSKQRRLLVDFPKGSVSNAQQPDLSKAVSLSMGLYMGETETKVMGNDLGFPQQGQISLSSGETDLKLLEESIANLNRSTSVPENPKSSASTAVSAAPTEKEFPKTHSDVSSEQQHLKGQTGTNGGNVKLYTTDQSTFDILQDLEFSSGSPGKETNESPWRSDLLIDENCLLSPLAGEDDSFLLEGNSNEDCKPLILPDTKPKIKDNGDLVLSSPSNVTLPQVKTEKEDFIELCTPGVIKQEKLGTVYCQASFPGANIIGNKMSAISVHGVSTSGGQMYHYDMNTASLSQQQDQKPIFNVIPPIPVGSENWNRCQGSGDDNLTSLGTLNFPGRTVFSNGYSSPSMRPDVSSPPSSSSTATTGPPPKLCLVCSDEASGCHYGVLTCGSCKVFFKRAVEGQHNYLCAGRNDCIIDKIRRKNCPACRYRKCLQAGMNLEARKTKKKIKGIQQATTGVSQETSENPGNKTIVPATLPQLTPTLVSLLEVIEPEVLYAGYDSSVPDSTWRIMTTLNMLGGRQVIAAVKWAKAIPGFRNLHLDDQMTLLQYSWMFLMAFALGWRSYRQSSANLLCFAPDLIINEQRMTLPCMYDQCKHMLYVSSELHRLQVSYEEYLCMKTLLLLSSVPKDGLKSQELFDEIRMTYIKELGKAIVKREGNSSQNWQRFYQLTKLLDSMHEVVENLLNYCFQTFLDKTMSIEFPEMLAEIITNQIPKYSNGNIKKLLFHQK

[5] = test system: Radical scavenging activity; experiment: Antioxidant activity assessed as DPPH free radical scavenging activity up to 100 uM after 30 mins by spectrophotometry; assay type: functional

SMILES	ID50 (Mus musculus)	inhibition [1]	Activity [2]	Activity [3]	Activity [4]	Activity [5]
COc1cc(O)ccc1-c1cc2cc(CCCO)ccc2o1	0.45 umol/cm2	inactive	inactive	inactive	inactive	–
C/C=C/c1ccc2oc(-c3ccc(O)cc3)c(C)c2c1 [RATANIAPHENOL II]	0.4 umol/cm2	inactive	inactive	inactive	inactive	inactive
C/C=C/c1ccc2oc(-c3ccc(O)cc3OC)cc2c1 [RATANIAPHENOL III]	0.48 umol/cm2	inactive	inactive	inactive	inactive	–
C/C=C/c1ccc2c(c1)[C@H](CO)[C@@H](c1ccc(O)cc1)O2	0.42 umol/cm2	inactive	inactive	inactive	inactive	inactive
COc1ccc(-c2cc3cc(CCCO)ccc3o2)c(O)c1	0.36 umol/cm2	inactive	inactive	inactive	inactive	–
C/C=C/c1ccc2c(c1)[C@@H](C)[C@H](c1ccc(O)cc1)O2	–	inactive	inactive	inactive	inactive	inactive
C/C=C/c1ccc2oc(-c3ccc(OC)cc3O)cc2c1 [RATANIAPHENOL I]	0.57 umol/cm2	inactive	inactive	inactive	inactive	–
C[C@@H]1[C@H](C)[C@@H](c2ccc(O)cc2)O[C@H]1c1ccc(O)cc1	0.36 umol/cm2	inactive	inactive	inactive	inactive	inactive
C/C=C/c1ccc2oc(-c3ccc(O)cc3O)cc2c1	0.6 umol/cm2	inactive	inactive	inactive	inactive	–
C/C=C/c1ccc2oc(-c3ccc(O)cc3)cc2c1	0.44 umol/cm2	inactive	inactive	inactive	inactive	inactive
C[C@@H]1[C@H](C)[C@@H](c2ccc(O)cc2)O[C@@H]1c1ccc(O)cc1	0.46 umol/cm2	inactive	inactive	inactive	inactive	inactive
